Results: US6706663B2, “Herbicidal 3-heterocyclic substituted benzisothiazole and benzisoxazole compounds” (Wyeth, priority 2000, dated 2004)

What was measured:
[1] = test system: ABUTH (Abutilon theophrasti); assay: Postemergence herbicidal evaluation; format: in vivo, Medic.
How it was run: (§1)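 Seedlings grown for about two weeks were sprayed postemergence and then kept under standard greenhouse care. Injury was rated visually 4–5 weeks after treatment on a 0–9 scale against untreated controls, and ratings from repeat tests were averaged.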

GALAP (Galium aparine) = assay: Postemergence herbicidal evaluation; format: in vivo
How it was run: as §1

[2] = test system: IPOHE (Ipomoea hederacea); assay: Postemergence herbicidal evaluation; format: in vivo, (L.) Jacq.
How it was run: as §1

[3] = test system: ECHCG (Echinochloa crus-galli); assay: Postemergence herbicidal evaluation; format: in vivo, (L.) Beau
How it was run: as §1

SETVI (Setaria viridis) [4] = assay: Postemergence herbicidal evaluation; format: in vivo, (L.) Beau
How it was run: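 Postemergence foliar spray on two-week-old seedlings, dose equivalent to about 0.0040 to 1.000 kg/ha. Ratings use a 0-9 visual scale relative to control at four to five weeks.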

[5] = test system: GLXMAW (Soybean, Williams); assay: Postemergence herbicidal evaluation; format: in vivo, Glycine max, (L.) Merr. cv Williams
How it was run: as §1

ORYSAT (Rice, Tebonnet) [6] = assay: Postemergence herbicidal evaluation; format: in vivo, Oryza sativa, (L.) Tebonnet
How it was run: as §1

ZEAMX (Corn, Field) = assay: Postemergence herbicidal evaluation; format: in vivo, Zea mays, L.
How it was run: as §1

[7] = test system: AMBEL (Ambrosia artemisifolia); assay: Preemergence herbicidal evaluation; format: in vivo, L.; settings: preemergence, rated 4-5 weeks after treatment
How it was run: (§2)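 Test compound is applied in aqueous acetone to cups just after seeding. Cups are watered and maintained on greenhouse benches. Each cup is scored 0–9 by eye relative to a control after four to five weeks.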

[8] = test system: CASOB (Cassia obtusifolia); assay: Preemergence herbicidal evaluation; format: in vivo, L.; settings: preemergence, rated 4-5 weeks after treatment
How it was run: as §2

[9] = test system: CHEAL (Chenopodium album); assay: Preemergence herbicidal evaluation; format: in vivo, L.; settings: preemergence, rated 4-5 weeks after treatment
How it was run: as §2

[10] = test system: IPOHE (Ipomoea hederacea); assay: Preemergence herbicidal evaluation; format: in vivo, (L.) Jacq.; settings: preemergence, rated 4-5 weeks after treatment
[11] = test system: ECHCG (Echinochloa crus-galli); assay: Preemergence herbicidal evaluation; format: in vivo, (L.) Beau; settings: preemergence, rated 4-5 weeks after treatment
How it was run: as §2

SETVI (Setaria viridis) [12] = assay: Preemergence herbicidal evaluation; format: in vivo, (L.) Beau; settings: preemergence, rated 4-5 weeks after treatment
How it was run: as §2

ORYSAT (Rice, Tebonnet) [13] = assay: Preemergence herbicidal evaluation; format: in vivo, Oryza sativa, (L.) Tebonnet; settings: preemergence, rated 4-5 weeks after treatment
[14] = test system: ECHORC (Echinochloa oryzoides); assay: Flooded paddy, preemergence weed control; format: in vivo, Echinochloa oryzoides (Ard.) Fritsch.; settings: rated 3-4 weeks after treatment, 0-9 rating scale
How it was run: (§3)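 Ratings of 0-9 reflect visual comparison with a control for stand, vigor, deformity, size, chlorosis and overall look. Propagules were placed in shallow silt loam (top 0.5 cm) under a continuous 1.5–3 cm flood and grown in the greenhouse.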

CYPIR (Cyperus iria) = assay: Flooded paddy, preemergence weed control; format: in vivo; settings: rated 3-4 weeks after treatment, 0-9 rating scale
How it was run: as §3

[15] = test system: MOOVA (Monochoria vaginalis); assay: Flooded paddy, preemergence weed control; format: in vivo, Presl.; settings: rated 3-4 weeks after treatment, 0-9 rating scale
How it was run: as §3

[16] = test system: SAGPY (Sagittaria pygmaea); assay: Flooded paddy, preemergence weed control; format: in vivo, L.; settings: rated 3-4 weeks after treatment, 0-9 rating scale
How it was run: as §3

ORYSAT (Rice, Tebonnet) [17] = assay: Flooded paddy, post-transplant rice tolerance; format: in vivo, Oryza sativa, (L.) Tebonnet; settings: flooded paddy, post-transplant rice, rated 3-4 weeks after treatment, 0-9 rating scale
How it was run: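 Visual 0–9 injury rating against a control, covering stand, vigor, malformation, size, chlorosis and overall appearance. Treatment was post-transplant onto flooded containers (water 1.5–3 cm deep, silt loam) holding two ten-day-old cv. Tebonnet seedlings, maintained on greenhouse benches.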

Cc1csc(-c2nsc3ccc(-n4c(=O)cc(C(F)(F)F)n(C)c4=O)cc23)n1 [Compound 7, 1-methyl-3-[3-(4-methyl-2-thiazolyl)-1,2-benzisothiazol-5-yl]-6-(trifluoromethyl)uracil]
Postemergence herbicidal rating, ABUTH ([1]; rate 0.0320 kg/ha): 9.0
Postemergence herbicidal rating, ABUTH ([1]; rate 0.0620 kg/ha): 9.0
Postemergence herbicidal rating, ABUTH ([1]; rate 0.1250 kg/ha): 9.0
Postemergence herbicidal rating, GALAP (GALAP (Galium aparine); rate 0.0320 kg/ha): 2.0
Postemergence herbicidal rating, GALAP (GALAP (Galium aparine); rate 0.0620 kg/ha): 9.0
Postemergence herbicidal rating, GALAP (GALAP (Galium aparine); rate 0.1250 kg/ha): 7.0
Postemergence herbicidal rating, IPOHE ([2]; rate 0.0320 kg/ha): 2.0
Postemergence herbicidal rating, IPOHE ([2]; rate 0.0620 kg/ha): 9.0
Postemergence herbicidal rating, IPOHE ([2]; rate 0.1250 kg/ha): 9.0
Postemergence herbicidal rating, ECHCG ([3]; rate 0.0320 kg/ha): 0.0
Postemergence herbicidal rating, ECHCG ([3]; rate 0.0620 kg/ha): 0.0
Postemergence herbicidal rating, ECHCG ([3]; rate 0.1250 kg/ha): 0.0
Postemergence herbicidal rating, SETVI (SETVI (Setaria viridis) [4]; rate 0.0320 kg/ha): 0.0
Postemergence herbicidal rating, SETVI (SETVI (Setaria viridis) [4]; rate 0.0620 kg/ha): 0.0
Postemergence herbicidal rating, SETVI (SETVI (Setaria viridis) [4]; rate 0.1250 kg/ha): 2.0
Postemergence herbicidal rating, GLXMAW ([5]; rate 0.0320 kg/ha): 5.0
Postemergence herbicidal rating, GLXMAW ([5]; rate 0.0620 kg/ha): 5.0
Postemergence herbicidal rating, GLXMAW ([5]; rate 0.1250 kg/ha): 5.5
Postemergence herbicidal rating, ORYSAT (ORYSAT (Rice, Tebonnet) [6]; rate 0.0320 kg/ha): 4.5
Postemergence herbicidal rating, ORYSAT (ORYSAT (Rice, Tebonnet) [6]; rate 0.0620 kg/ha): 5.0
Postemergence herbicidal rating, ORYSAT (ORYSAT (Rice, Tebonnet) [6]; rate 0.1250 kg/ha): 7.0
Postemergence herbicidal rating, ZEAMX (ZEAMX (Corn, Field); rate 0.0320 kg/ha): 5.0
Postemergence herbicidal rating, ZEAMX (ZEAMX (Corn, Field); rate 0.0620 kg/ha): 6.0
Postemergence herbicidal rating, ZEAMX (ZEAMX (Corn, Field); rate 0.1250 kg/ha): 7.5
AMBEL preemergence herbicidal rating ([7]; Rate 0.0620 kg/ha): 0.0
AMBEL preemergence herbicidal rating ([7]; Rate 0.1250 kg/ha): 0.0
AMBEL preemergence herbicidal rating ([7]; Rate 0.2500 kg/ha): 0.0
CASOB preemergence herbicidal rating ([8]; Rate 0.0620 kg/ha): 0.0
CASOB preemergence herbicidal rating ([8]; Rate 0.1250 kg/ha): 3.0
CASOB preemergence herbicidal rating ([8]; Rate 0.2500 kg/ha): 9.0
CHEAL preemergence herbicidal rating ([9]; Rate 0.0620 kg/ha): 9.0
CHEAL preemergence herbicidal rating ([9]; Rate 0.1250 kg/ha): 9.0
CHEAL preemergence herbicidal rating ([9]; Rate 0.2500 kg/ha): 9.0
IPOHE preemergence herbicidal rating ([10]; Rate 0.0620 kg/ha): 0.0
IPOHE preemergence herbicidal rating ([10]; Rate 0.1250 kg/ha): 0.0
IPOHE preemergence herbicidal rating ([10]; Rate 0.2500 kg/ha): 9.0
ECHCG preemergence herbicidal rating ([11]; Rate 0.0620 kg/ha): 0.0
ECHCG preemergence herbicidal rating ([11]; Rate 0.1250 kg/ha): 3.0
ECHCG preemergence herbicidal rating ([11]; Rate 0.2500 kg/ha): 3.0
SETVI preemergence herbicidal rating (SETVI (Setaria viridis) [12]; Rate 0.0620 kg/ha): 9.0
SETVI preemergence herbicidal rating (SETVI (Setaria viridis) [12]; Rate 0.1250 kg/ha): 9.0
SETVI preemergence herbicidal rating (SETVI (Setaria viridis) [12]; Rate 0.2500 kg/ha): 9.0
ORYSAT preemergence herbicidal rating (ORYSAT (Rice, Tebonnet) [13]; Rate 0.0620 kg/ha): 0.0
ORYSAT preemergence herbicidal rating (ORYSAT (Rice, Tebonnet) [13]; Rate 0.1250 kg/ha): 0.0
ORYSAT preemergence herbicidal rating (ORYSAT (Rice, Tebonnet) [13]; Rate 0.2500 kg/ha): 0.0
herbicidal rating, ECHORC ([14]; rate 0.0080 kg/ha): 0.0
herbicidal rating, ECHORC ([14]; rate 0.0320 kg/ha): 5.0
herbicidal rating, ECHORC ([14]; rate 0.1250 kg/ha): 9.0
herbicidal rating, CYPIR (CYPIR (Cyperus iria); rate 0.0080 kg/ha): 7.0
herbicidal rating, CYPIR (CYPIR (Cyperus iria); rate 0.0320 kg/ha): 8.5
herbicidal rating, CYPIR (CYPIR (Cyperus iria); rate 0.1250 kg/ha): 9.0
herbicidal rating, MOOVA ([15]; rate 0.0080 kg/ha): 9.0
herbicidal rating, MOOVA ([15]; rate 0.0320 kg/ha): 9.0
herbicidal rating, MOOVA ([15]; rate 0.1250 kg/ha): 9.0
herbicidal rating, SAGPY ([16]; rate 0.0080 kg/ha): 0.0
herbicidal rating, SAGPY ([16]; rate 0.0320 kg/ha): 0.0
herbicidal rating, SAGPY ([16]; rate 0.1250 kg/ha): 1.0
herbicidal rating, ORYSAT (rice tolerance) (ORYSAT (Rice, Tebonnet) [17]; rate 0.0080 kg/ha): 3.0
herbicidal rating, ORYSAT (rice tolerance) (ORYSAT (Rice, Tebonnet) [17]; rate 0.0320 kg/ha): 2.0
herbicidal rating, ORYSAT (rice tolerance) (ORYSAT (Rice, Tebonnet) [17]; rate 0.1250 kg/ha): 5.0
